Drawing on ChEMBL document CHEMBL5154800, “Identification of N, C-capped di- and tripeptides as selective immunoproteasome inhibitors” (Eur J Med Chem, 2022), this text covers inhibition of growth, Ratio IC50 and IC50 for 30 compounds.

Non-standard residues stand in square brackets, D forms with d. Residues, ends and D or L forms follow the SMILES beside them. *: point of attachment. 4Amb = NCc1ccc(C(=O)O)cc1; NHtBu = CC(C)(C)N*; ClAc = O=C(CCl)*; βAla = NCCC(=O)O Some results are limits rather than exact numbers.

One assay relates to HCT-116. Briefly: Antiproliferative activity against human HCT-116 cells assessed as growth inhibition at 0.2 uM measured after 72 hrs by MTT assay. In kind it is functional. The following applies: read-out: GI. (In general: Tetrazolium assays rely on reduction of a dye to a coloured formazan, in cell work by metabolically active cells.)
For the next assay, the system named is HT-29. In words: Antiproliferative activity against human HT-29 cells assessed as growth inhibition at 0.2 uM measured after 72 hrs by MTT assay. In kind it is functional. The following applies: read-out: GI.
A short description of assay [1]: Selectivity ratio of IC50 for inhibition of 20S proteasome beta 5c subunit (unknown origin) to IC50 for inhibition of 20S proteasome subunit beta-5i.
Another assay deals with DOHH-2. In words: Antiproliferative activity against human DOHH-2 cells assessed as growth inhibition at 0.2 uM measured after 72 hrs by MTT assay. The following applies: read-out: GI. Format: functional.
In the next assay the test system is Pfeiffer. In words: Antiproliferative activity against human Pfeiffer cells assessed as growth inhibition at 0.2 uM measured after 72 hrs by MTT assay. In kind it is functional. The following applies: read-out: GI.
The test system of a further assay is MCF7. Briefly: Antiproliferative activity against human MCF7 cells assessed as growth inhibition at 0.2 uM measured after 72 hrs by MTT assay. Format: functional. The following applies: read-out: GI.
The target of assay [2] is T1, Proteasome Macropain subunit MB1 (Homo sapiens, UniProt P28074).
T1 sequence (P28074 whole entry): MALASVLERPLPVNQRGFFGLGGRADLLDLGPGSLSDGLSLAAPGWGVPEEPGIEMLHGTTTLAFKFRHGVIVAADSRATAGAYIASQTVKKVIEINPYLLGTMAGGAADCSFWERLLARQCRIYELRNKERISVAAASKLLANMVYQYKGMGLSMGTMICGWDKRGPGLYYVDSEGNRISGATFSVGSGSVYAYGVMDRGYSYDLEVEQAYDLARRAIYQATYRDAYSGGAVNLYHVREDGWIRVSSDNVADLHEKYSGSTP
In words: Inhibition of 20S proteasome subunit beta-5c (unknown origin) using Ac-WLA-AMC as substrate and measured after 30 mins.

The target of assay [3] is T2, Proteasome subunit beta type-8 (Homo sapiens, UniProt P28062).
T2 sequence (P28062 whole entry): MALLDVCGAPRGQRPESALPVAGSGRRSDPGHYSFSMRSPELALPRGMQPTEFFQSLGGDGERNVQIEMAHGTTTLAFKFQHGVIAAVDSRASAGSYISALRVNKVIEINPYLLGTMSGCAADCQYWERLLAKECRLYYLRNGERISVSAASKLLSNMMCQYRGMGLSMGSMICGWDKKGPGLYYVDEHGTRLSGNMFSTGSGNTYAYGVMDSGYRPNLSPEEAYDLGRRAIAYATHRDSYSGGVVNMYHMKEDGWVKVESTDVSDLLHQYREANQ
In words: Inhibition of 20S proteasome subunit beta-5i (unknown origin) using Ac-ANW-AMC as substrate and measured after 30 mins.

With `Cc1ccc(CNC(=O)[C@H](Cc2ccccc2)NC(=O)[C@H](CCC(=O)NC(C)(C)C)NC(=O)[C@H](CNC(=O)CCl)NC(=O)CN2CCOCC2)cc1`, the inhibition of growth at 0.2 µM in the assay with HCT-116 is 29%; with HT-29 it was under 20%; in the assay on DOHH-2, under 20%; with Pfeiffer, 32%; with MCF7, under 20%. In addition, in assay [1], the Ratio IC50 came to 14.
With `Cc1ccc(CNC(=O)[C@H](Cc2ccccc2)NC(=O)[C@H](CCC(=O)NC(C)(C)C)NC(=O)CCNC(=O)/C(C#N)=C/C(C)C)cc1`, the inhibition of growth at 0.2 µM in the assay with HCT-116 was 30%; in the assay on HT-29 it was under 20%; with DOHH-2, 27%; in the assay with Pfeiffer, 27%; with MCF7 it was under 20%. In assay [1], the Ratio IC50 came out at 4.
Regarding `COc1cccc(CNC(=O)[C@H](Cc2ccccc2)NC(=O)[C@H](CCC(=O)NC(C)(C)C)NC(=O)CCNC(=O)CCl)c1`, the Ratio IC50 in assay [1] worked out at 11.
Turning to `Cc1ccc(CNC(=O)[C@H](Cc2ccccc2)NC(=O)[C@H](CCC(=O)NC(C)(C)C)NC(=O)CCNC(=O)/C(C#N)=C/c2ccc(Cl)cc2)cc1`, the inhibition of growth at 0.2 µM was 28% in the assay with HCT-116; under 20% in the assay with HT-29; under 20% in the assay on DOHH-2; 34% with Pfeiffer; 43% with MCF7. In addition, the Ratio IC50 in assay [1] stood at 22.
In the case of `CC[C@H](NC(=O)[C@H](CCC(=O)NC(C)(C)C)NC(=O)CCNC(=O)CCl)C(=O)NCc1ccc(C)cc1`, the IC50 (in general, the midpoint of a concentration-inhibition curve) in assay [2] turned out to be 0.204 µM; in assay [3], 0.0616 µM. For the same compound, in assay [1], the Ratio IC50 was 3.
In assay [3], `CC(C)(C)NC(=O)CC[C@H](NC(=O)CCNC(=O)CCl)C(=O)N[C@@H](Cc1ccccc1)C(=O)NCc1ccc(C#N)cc1C(F)(F)F` came in with an IC50 of over 5 µM.
With `Cc1ccc(CNC(=O)CNC(=O)[C@H](CCC(=O)NC(C)(C)C)NC(=O)CCNC(=O)CCl)cc1`, the half-inhibitory concentration (IC50) in assay [2] is 3.79 µM; in assay [3], 0.626 µM. Moreover, in assay [1], the Ratio IC50 is 6.
On to `Cc1ccc(/C=C(\C#N)C(=O)NCCC(=O)N[C@@H](CCC(=O)NC(C)(C)C)C(=O)N[C@@H](Cc2ccccc2)C(=O)NCc2ccc(C)cc2)cc1`, for which the inhibition of growth at 0.2 µM with HCT-116 is 41%; in the assay on HT-29, under 20%; with DOHH-2, under 20%; in the assay on Pfeiffer, 29%; in the assay with MCF7, under 20%. Further, in assay [1], the Ratio IC50 came out at 9.
For the compound `CC(C)c1ccc(CNC(=O)[C@H](Cc2ccccc2)NC(=O)[C@H](CCC(=O)NC(C)(C)C)NC(=O)CCNC(=O)CCl)cc1`, in assay [1], the Ratio IC50 turned out to be 12.
In the case of `Cc1ccc(CNC(=O)[C@H](Cc2ccccc2F)NC(=O)[C@H](CCC(=O)NC(C)(C)C)NC(=O)CCNC(=O)CCl)cc1`, in assay [2], it took 0.0815 µM to reach half-maximal inhibition (IC50). For the same compound, the Ratio IC50 in assay [1] was determined as 4.
Consider `Cc1ncsc1-c1ccc(CNC(=O)[C@H](Cc2ccccc2)NC(=O)[C@H](CCC(=O)NC(C)(C)C)NC(=O)CCNC(=O)CCl)cc1`, for which, in assay [2], the IC50 was over 5 µM. In addition, the Ratio IC50 in assay [1] was over 11.
In the case of `Cc1ccc(CNC(=O)[C@H](Cc2ccccc2)NC(=O)[C@H](CCC(=O)NC(C)(C)C)NC(=O)[C@H](CNC(=O)CCl)NC(=O)C(=O)c2c[nH]c3ccccc23)cc1`, the inhibition of growth at 0.2 µM was 44% in the assay on HCT-116; under 20% in the assay on HT-29; under 20% in the assay with DOHH-2; 32% in the assay on Pfeiffer; under 20% with MCF7. In assay [1], the Ratio IC50 was found to be 2.
As for `Cc1ccc(CNC(=O)[C@H](Cc2ccccc2)NC(=O)[C@H](CCC(=O)NC(C)(C)C)NC(=O)CCNC(=O)/C(C#N)=C/c2nccs2)cc1`, the inhibition of growth at 0.2 µM was under 20% in the assay with HCT-116; under 20% in the assay with HT-29; 22% with DOHH-2; 22% with Pfeiffer; under 20% with MCF7. Moreover, the Ratio IC50 in assay [1] is 4.
Turning to `CC(C)(C)NC(=O)CC[C@H](NC(=O)CCNC(=O)CCl)C(=O)N[C@@H](Cc1ccccc1)C(=O)NCc1cccc(C(F)(F)F)c1`, the concentration for half-maximal inhibition (IC50) in assay [3] is 0.125 µM. Also, in assay [1], the Ratio IC50 worked out at 22.
In the same order, the values of `Cc1[nH]c2ccc(CNC(=O)[C@H](Cc3ccccc3)NC(=O)[C@H](CCC(=O)NC(C)(C)C)NC(=O)CCNC(=O)CCl)cc2c1C` are 0.0365 µM and 27.
In the case of `CC(C)(C)NC(=O)CC[C@H](NC(=O)CCNC(=O)CC#N)C(=O)N[C@@H](Cc1ccc2ccccc2c1)C(=O)NCc1cccc2ccccc12`, the Ratio IC50 in assay [1] is 52.
`Cc1ccc(CNC(=O)[C@H](Cc2ccccc2)NC(=O)[C@H](CCC(=O)NC(C)(C)C)NC(=O)[C@H](CNC(=O)CCl)NC(=O)OC(C)(C)C)cc1`: the inhibition of growth at 0.2 µM with HCT-116 was 46%; with HT-29, 11%; in the assay on DOHH-2, under 20%; in the assay with Pfeiffer, 29%; in the assay with MCF7 it was under 20%. Besides, the Ratio IC50 in assay [1] is 6.
As for `Cc1ccc(CNC(=O)[C@H](Cc2cccc(F)c2)NC(=O)[C@H](CCC(=O)NC(C)(C)C)NC(=O)CCNC(=O)CCl)cc1`, the inhibition of growth at 0.2 µM was 35% in the assay on HCT-116; under 20% in the assay on HT-29; under 20% in the assay on DOHH-2; 29% in the assay with Pfeiffer; under 20% with MCF7. Moreover, in assay [3], half-maximal inhibition (IC50) required 0.00651 µM. Besides, in assay [1], the Ratio IC50 came to 20.
For the compound `Cc1ccc(CNC(=O)[C@H](Cc2ccccc2)NC(=O)[C@H](CCC(=O)NC(C)(C)C)NC(=O)CCNC(=O)/C(C#N)=C/C2CC2)cc1`, the inhibition of growth at 0.2 µM in the assay on HCT-116 is 26%; in the assay on HT-29, under 20%; with DOHH-2, 25%; with Pfeiffer it was under 20%; in the assay on MCF7, 22%. Moreover, the IC50 in assay [3] was determined as 0.00964 µM. Further, the Ratio IC50 in assay [1] was found to be 7.
With `CC(C)(C)NC(=O)CC[C@H](NC(=O)CCNC(=O)CCl)C(=O)N[C@@H](Cc1ccccc1)C(=O)NCc1ccc(N2CCOCC2)cc1`, the Ratio IC50 in assay [1] came out at 5.
For the compound `CC(C)(C)NC(=O)CC[C@H](NC(=O)CCNC(=O)CCl)C(=O)N[C@@H](Cc1ccccc1)C(=O)NCc1ccc(OC(F)(F)F)cc1`, the IC50 in assay [2] is over 5 µM. Moreover, the Ratio IC50 in assay [1] was over 14.
As for `COc1ccc(/C=C(\C#N)C(=O)NCCC(=O)N[C@@H](CCC(=O)NC(C)(C)C)C(=O)N[C@@H](Cc2ccccc2)C(=O)NCc2ccc(C)cc2)cc1`, the inhibition of growth at 0.2 µM in the assay on HCT-116 was 32%; in the assay with HT-29, under 20%; in the assay with DOHH-2, under 20%; in the assay on Pfeiffer it was 28%; in the assay with MCF7 it was under 20%. Besides, the Ratio IC50 in assay [1] stood at 2.
Take `COC(=O)c1ccc(CNC(=O)[C@H](Cc2ccccc2)NC(=O)[C@H](CCC(=O)NC(C)(C)C)NC(=O)CCNC(=O)CCl)cc1` ({ClAc-βAla}-Glu(NHtBu)-Phe-[4Amb]-OMe): the Ratio IC50 in assay [1] was found to be 6.
In the case of `CC(C)(C)NC(=O)CC[C@H](NC(=O)CCNC(=O)CCl)C(=O)N[C@@H](Cc1ccccc1)C(=O)NCc1ccccc1C(F)(F)F`, in assay [2], the IC50 was over 5 µM. The Ratio IC50 in assay [1] was over 19.
On to `Cn1ncc2cc(CNC(=O)[C@H](Cc3ccccc3)NC(=O)[C@H](CCC(=O)NC(C)(C)C)NC(=O)CCNC(=O)CCl)ccc21`, for which, in assay [1], the Ratio IC50 was 3.
With `Cc1ccc(CNC(=O)[C@H](Cc2ccccc2)NC(=O)[C@H](CCC(=O)NC(C)(C)C)NC(=O)CCNC(=O)CCl)cc1`, the inhibition of growth at 0.2 µM in the assay with HCT-116 was 49%; in the assay with HT-29, under 20%; in the assay with DOHH-2 it was 36%; in the assay on Pfeiffer, under 20%; in the assay on MCF7, under 20%. Also, in assay [1], the Ratio IC50 stood at 12.
In the case of `CC(C)(C)NC(=O)CC[C@H](NC(=O)CCNC(=O)CCl)C(=O)N[C@@H](Cc1ccccc1)C(=O)NCc1ccc2ccccc2c1`, the inhibition of growth at 0.2 µM was 39% in the assay on HCT-116; under 20% with HT-29; under 20% in the assay on DOHH-2; 25% in the assay with Pfeiffer; under 20% in the assay on MCF7. Moreover, the Ratio IC50 in assay [1] came out at 15.
In the case of `CC(=O)N[C@@H](CNC(=O)CCl)C(=O)N[C@@H](CCC(=O)NC(C)(C)C)C(=O)N[C@@H](Cc1ccccc1)C(=O)NCc1ccc(C)cc1`, the Ratio IC50 in assay [1] turned out to be 3.
Take `CC(C)(C)NC(=O)CC[C@H](NC(=O)CCNC(=O)CCl)C(=O)N[C@@H](Cc1ccccc1)C(=O)NCc1ccc(S(C)(=O)=O)cc1`: the 50% inhibitory concentration (IC50) in assay [3] was over 5 µM.
Regarding `Cc1ccc(CNC(=O)[C@H](Cc2ccccc2)NC(=O)[C@H](CCC(=O)N2CCCC2)NC(=O)[C@H](CNC(=O)CCl)NC(=O)CN2CCOCC2)cc1`, 3.57 µM corresponded to half-maximal inhibition in assay [2] (IC50). Besides, in assay [1], the Ratio IC50 was found to be 10.
